Molecules are shown by their SMILES.

A short description of data set [1]: AUC in Sprague-Dawley rat at 0.98 mg/kg, po measured upto 24 hrs by LC-MS/MS analysis. It is filed as ADME, organism-based. The arrangement: time < 24 hr, dose 0.98 mg/kg, route oral. As to conditions: in vivo.
Data set [2] can be described thus: Half life in Sprague-Dawley rat at 0.49 mg/kg, iv or 0.98 mg/kg, po measured upto 24 hrs by LC-MS/MS analysis. It is filed as ADME, organism-based. The conditions noted are these: in vivo.
Data set [3] can be described thus: Metabolic stability in human liver microsomes assessed as half life. It is filed as ADME, Microsome.
A short description of data set [4]: Clearance in Sprague-Dawley rat at 0.49 mg/kg, iv or 0.98 mg/kg, po measured upto 24 hrs by LC-MS/MS analysis. Format: ADME, organism-based. The conditions noted are these: in vivo.
For the next data set, the target named is Coagulation factor XI (Homo sapiens, UniProt P03951). The experiment in a line: Inhibition of recombinant human activated coagulation factor XI using pyro-Glu-Pro-Arg-pNA as substrate by spectrophotometry.
Data set [5] can be described thus: Oral bioavailability in Sprague-Dawley rat at 0.98 mg/kg measured upto 24 hrs by LC-MS/MS analysis. It is filed as ADME, organism-based. As to conditions: in vivo.
Data set [6] is described as follows: Metabolic stability in rat liver microsomes assessed as half life. It is filed as ADME, Microsome.
A short description of data set [7]: Permeability across apical to basolateral side in human Caco2 cells. Format: ADME, cell-based. As to conditions: Caco-2, read-out: permeability.
The subject of the next data set is Plasma. Kind of data set: Anticoagulant activity in human plasma assessed as EC1.5 of activated partial thromboplastin time by coagulometric analysis. Format: functional.
Data set [8] can be described thus: Permeability across basolateral to apical side in human Caco2 cells. Format: ADME, cell-based. As to conditions: Caco-2, read-out: permeability.
The nature of data set [9]: Protein binding in rat assessed as unbound fraction. It is filed as ADME.
The nature of data set [10]: Volume of distribution at steady state in Sprague-Dawley rat at 0.49 mg/kg, iv or 0.98 mg/kg, po measured upto 24 hrs by LC-MS/MS analysis. Format: ADME, organism-based. As to conditions: in vivo, read-out: Vdss.
Data set [11] is described as follows: Half life in Sprague-Dawley rat at 0.52 mg/kg, iv or 1.04 mg/kg, po measured upto 24 hrs by LC-MS/MS analysis. It is filed as ADME, organism-based. As to conditions: in vivo.
A short description of data set [12]: Volume of distribution at steady state in Sprague-Dawley rat at 0.52 mg/kg, iv or 1.04 mg/kg, po measured upto 24 hrs by LC-MS/MS analysis. As to conditions: in vivo, read-out: Vdss. It is filed as ADME, organism-based.
Data set [13] can be described thus: Oral bioavailability in Sprague-Dawley rat at 1.04 mg/kg measured upto 24 hrs by LC-MS/MS analysis. It is filed as ADME, organism-based. As to conditions: in vivo.
Data set [14] in a line: AUC in Sprague-Dawley rat at 1.04 mg/kg, po measured upto 24 hrs by LC-MS/MS analysis. Format: ADME, organism-based. The arrangement: time < 24 hr, dose 1.04 mg/kg, route oral. The conditions noted are these: in vivo.
The nature of data set [15]: Clearance in Sprague-Dawley rat at 0.52 mg/kg, iv or 1.04 mg/kg, po measured upto 24 hrs by LC-MS/MS analysis. Format: ADME, organism-based. The conditions noted are these: in vivo.

Sequence of Coagulation factor XI (P03951 19-387 limits assumed): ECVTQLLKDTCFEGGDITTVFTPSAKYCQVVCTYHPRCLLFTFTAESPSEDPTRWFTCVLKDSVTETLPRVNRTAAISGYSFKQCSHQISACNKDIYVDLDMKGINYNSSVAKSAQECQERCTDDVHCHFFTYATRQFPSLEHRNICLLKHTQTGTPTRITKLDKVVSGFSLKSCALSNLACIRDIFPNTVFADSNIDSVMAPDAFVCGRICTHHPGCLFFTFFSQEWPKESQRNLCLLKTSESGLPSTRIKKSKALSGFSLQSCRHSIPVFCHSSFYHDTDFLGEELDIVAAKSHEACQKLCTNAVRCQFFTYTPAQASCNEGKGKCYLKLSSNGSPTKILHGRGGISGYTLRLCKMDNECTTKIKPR
Sequence of Coagulation factor XI (P03951 388-625 limits assumed): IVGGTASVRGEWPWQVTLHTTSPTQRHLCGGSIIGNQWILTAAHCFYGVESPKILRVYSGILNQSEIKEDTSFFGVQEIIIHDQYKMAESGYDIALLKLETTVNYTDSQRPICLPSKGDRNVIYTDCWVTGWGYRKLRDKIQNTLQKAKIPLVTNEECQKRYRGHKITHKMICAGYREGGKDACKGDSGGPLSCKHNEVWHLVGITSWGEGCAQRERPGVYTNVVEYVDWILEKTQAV

Consider `COC(=O)Nc1ccc2c(c1)N[C@@H](C(=O)O)CCCC[C@H](NC(=O)/C=C/c1cc(Cl)ccc1-n1cnnn1)c1nc-2c[nH]1`, for which the AUC at 24 h in [1] was found to be 0.014 µM·h. Besides, the figures for the half-life in data set [2], in data set [3] and in data set [6] were 1 h, 1.17 h and 1.25 h, respectively. Also, the clearance in [4] was found to be 7.7 mL/min/kg. Moreover, the Ki at Coagulation factor XI came out at 0.67 nM. The compound further displayed a bioavailability in data set [5] of 1%. For the same compound, the Papp A→B in data set [7] is less than 1.5 ×10⁻⁶ cm/s. For the same compound, the EC1.5 with Plasma was found to be 0.87 µM. Moreover, in data set [8], the Papp B→A was less than 1.5 ×10⁻⁶ cm/s. Also, the fraction unbound in data set [9] was determined as 0.014. Further, the Vd in data set [10] turned out to be 0.33 L/kg.

`COC(=O)Nc1ccc2c(c1)N[C@@H](C(=O)OC)CCCC[C@H](NC(=O)/C=C/c1cc(Cl)ccc1-n1cnnn1)c1cc-2ccn1`: the half-life is 1.2 h in data set [11], 1.85 h in [3] and 1.45 h in data set [6]. Further, in [12], the Vd came out at 0.53 L/kg. This compound yielded a bioavailability in data set [13] of 23%. For the same compound, in data set [14], the AUC at 24 h stood at 0.889 µM·h. The clearance in [15] was 5.2 mL/min/kg. Besides, the Ki on Coagulation factor XI amounted to 3.4 nM. In addition, in data set [7], the Papp A→B is less than 1.5 ×10⁻⁶ cm/s. Also, in the data set on Plasma, the EC1.5 worked out at 3.4 µM. Also, the Papp B→A in data set [8] worked out at 21.3 ×10⁻⁶ cm/s.

These data come from ChEMBL document CHEMBL4610060, “Orally bioavailable amine-linked macrocyclic inhibitors of factor XIa” (Bioorg Med Chem Lett, 2020).
